Legend:
[1] = system: THP1-Dual cells (Lucia luciferase under ISG54 promoter); experiment: THP-1 Dual Lucia reporter gene assay; type: cell-based, human; details: Homo sapiens, THP1-Dual, 20 h, luminescence signal induction, 20 hours at 37° C.
Protocol: THP1-Dual™ cells (InvivoGen #thpd-nfis) were derived from the human THP-1 monocyte cell line by stable integration of the Lucia luciferase gene, a secreted luciferase reporter gene, under the control of an ISG54 (interferon-stimulated gene) minimal promoter in conjunction with five interferon (IFN)-stimulated response elements. On the day of experiment, the cells were plated to a black, 384-well plate (Corning 356697) at 7500 cells/25 μl per well density in growth media (RPMI 1640, 2 mM L-glutamine, 25 mM HEPES, 10% heat-inactivated fetal bovine serum, 100 μg/mL Normocin™, 50 U/mL-50 μg/mL Pen-Strep, 10 μg/mL of blasticidin, and 100 μg/mL of Zeocin). The cell plates were dosed with 62.5 nL of the testing compounds, and then incubated at 37° C. for 20 hours. At the end of the incubation, 15 μL/well of the QUANTI-Luc™ (InvivoGen #rep-qlc1) were added, and luminescence was measured immediately using the LeadSeeker.
For the assay method described above, test compound percent luminescence signal induction, at various concentrations, was calculated relative to untreated and DMSO only treated samples. Compound concentration versus percent signal induction curves were fitted to generate EC50 values. One skilled in the art will appreciate that the values generated as EC50 values are subject to experimental variation.

Human STING = Human STING (Homo sapiens (Human), UniProt Q86WV6, H232R); experiment: Human STING TR-FRET assay; type: binding; details: human STING residues 140-379 (H232R), 100 nM; fluorescein labeled ligand 100 nM; 60 minutes at rt
Human STING, sequence (Q86WV6 140-379 H232R): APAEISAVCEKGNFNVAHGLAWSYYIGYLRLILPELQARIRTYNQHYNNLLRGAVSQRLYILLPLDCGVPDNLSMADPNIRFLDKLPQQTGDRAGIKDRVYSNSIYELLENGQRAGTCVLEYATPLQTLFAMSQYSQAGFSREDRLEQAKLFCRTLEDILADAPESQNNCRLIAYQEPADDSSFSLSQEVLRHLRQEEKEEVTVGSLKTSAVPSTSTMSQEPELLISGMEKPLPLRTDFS
Protocol: Human STING (accession number GB:BC047779) DNA encoding residues 140-379 (H232R) was cloned into pET28 as N-terminal HIS and C-terminal Avi tagged fusion protein, and a rTEV cleavage site between HIS tag and STING. The sequence was verified before recombinant protein expression using E. coli expression system.
For expression, STING expression vector was transformed into BL21(DE3) cells. The expression was induced by adding IPTG and expressing in 16° C. for 20 hours.
For purification, STING was purified by Nickel affinity resin (Thermo Scientific #25215), followed by TEV enzyme cleavage and Superdex 200 column (GE Healthcare #28-9893-35) purification. For site directed in vitro biotinylation, purified Avi-tagged STING protein was incubated with Biotin (SUPELCO #47868), ATP (SIGMA #A-7699) and BirA enzyme, followed by further purification through a Superdex 200 column (GE Healthcare #28-9893-35). Biotinylation was confirmed by Mass Spectrometry analysis.
40 nL of test compounds in DMSO were added to wells in a white, 384 well microtitre plate (Greiner 784075). 2 uL STING assay buffer (PBS and 0.01% BSA) containing fluorescein labeled ligand (c[G(2′,5′)p-2′-Fluo-AHC-A(3′,5′)p]-Biolog C 195, 100 nM final) and Tb labeled Streptavidin (Streptavidin-Tb cryptate-CisBio 610SATLB) were added. Then 2 uL STING assay buffer containing STING protein (100 nM final) was added and the mixture was incubated at rt for 60 minutes. The plates were then read on a BMG PheraStar Plus reader (LanthaScreen module).
For the assay method described above, test compound percent inhibition, at various concentrations, was calculated relative to untreated and DMSO only treated samples. Compound concentration versus percent inhibition curves were fitted to generate IC50 values. One skilled in the art will appreciate that the values generated either as percentage inhibition at a single concentration or IC50 values are subject to experimental variation.

SMILES: Nc1nc2c(ncn2[C@@H]2O[C@@H]3COP(=O)(O)O[C@H]4[C@@H](F)[C@H](n5cnc6c(N)ncnc65)O[C@@H]4CNS(=O)(=O)O[C@@H]2C3)c(=O)[nH]1 [Compound I-18, 2-amino-9-[(5S,7R,8R,12aR,14R,15R,15aR)-14-(6-amino-9H-purin-9-yl)-15-fluoro-2-hydroxy-2,10,10-trioxidodecahydro-5,8-methanofuro[2,3-m][1,3,6,9,10,11,2]tetraoxathiazaphosphacyclotetradecin-7-yl]-1,9-dihydro-6H-purin-6-one]
- EC50 [1]: 1000 to 10000 nM
- IC50 (Human STING): < 1000 nM

Source: patent US20250262298A1, “STING MODULATOR COMPOUNDS WITH SULFAMATE LINKAGES, AND METHODS OF MAKING AND USING” (TAKEDA PHARMACEUTICAL COMPANY LIMITED, priority 2018, published 2025)
